Experimental data: patent publication US7928096B2, “Polydiazeniumdiolated cyclic polyamines with polyphasic nitric oxide release and related compounds, compositions comprising same and methods of using same” (The United States of America, as represented by the …, priority 2002, dated 2011)
Read-outs that look alike come from different tables or passages of the source.

Experiments:
[1] = NO release rate by UV spectrophotometry (decrease in 250-252 nm absorbance); format: physicochemical; conditions: phosphate buffer, pH 7.4, pH 7.4 phosphate buffer (0.1 M), 37° C., 50 to 100 μM
Description: The invention provides a cyclic polyamine compound comprising at least three amino groups, wherein at least two of the amino groups are covalently bound to a nitrogen oxide-releasing group of the formula N2O2M, in which M is a pharmaceutically acceptable cation. The invention also provides a compound that has a polyphasic release of nitric oxide, wherein any subsequent release of nitric oxide has a rate that is at least about 3 times smaller than an initial rate of nitric oxide release. The rate of NO release can be determined by any suitable method. For example, the rate of NO release can be measured by the decrease in 250-252 nm absorbance over time at 37° C. as previously described by Keefer et al., “NONOates” (1-Substituted Diazen-1-ium-1,2-diolates) as Nitric Oxide Donors: Convenient Nitric Oxide Dosage Forms. Methods in Enzymology, 1996, 268, 281-293.
(§1) The total moles of NO released were determined by chemiluminescence as previously described in Hrabie et al. (New Nitric Oxide Releasing Zwitterions Derived from Polyamines. J. Org. Chem., 1993, 58, 1472-1476). The NO release rates for the compounds prepared in Example 1 and Example 2 were determined by UV spectrophotometry by adding a stock solution of the compound in 0.01 M NaOH to pH 7.4 phosphate buffer (0.1 M) contained in a standard UV cell to generate final solutions at concentrations in the range of 50 to 100 μM. The rate of NO release was determined by the decrease in 250-252 nm absorbance over time at 37° C. as previously described by Keefer et al. (“NONOates” (1-Substituted Diazen-1-ium-1,2-diolates) as Nitric Oxide Donors: Convenient Nitric Oxide Dosage Forms. Methods in Enzymology, 1996, 268, 281-293). The results of the NO release of piperazine bisdiazeniumdiolate as discussed in Hrabie et al. (Organic Preparations and Procedures International, 1999, 31(2), 189-192) are included as a comparative example.

[2] = Total moles of NO released by chemiluminescence; format: physicochemical; conditions: for Moles of NO released: chemiluminescence; for Ideal moles of NO released: theoretical (ideal) amount
Protocol: as §1

[3] = NO release monitored by chemiluminescence of effluent gas stream treated with ozone; conditions: pH 7.4 phosphate buffer at 37° C.
Protocol: The diazeniumdiolated compound described in Example 4 was dissolved in pH 7.4 phosphate buffer at 37° C., and the release of NO was monitored by detection of the chemiluminescence generated by treatment of the effluent gas steam with ozone.
The diazeniumdiolated compound described in Example 5 was dissolved in pH 7.4 phosphate buffer at 37° C., and the release of NO was monitored by detection of the chemiluminescence generated by treatment of the effluent gas steam with ozone.
The diazeniumdiolated compound described in Example 6 was dissolved in pH 7.4 phosphate buffer at 37° C., and the release of NO was monitored by detection of the chemiluminescence generated by treatment of the effluent gas steam with ozone.
The diazeniumdiolated compound described in Example 7 was dissolved in pH 7.4 phosphate buffer at 37° C., and the release of NO was monitored by detection of the chemiluminescence generated by treatment of the effluent gas steam with ozone.
The diazeniumdiolated compound described in Example 9 was dissolved in pH 7.4 phosphate buffer at 37° C., and the release of NO was monitored by detection of the chemiluminescence generated by treatment of the effluent gas steam with ozone.

[4] = comparative example from Hrabie et al. 1999; cited from earlier work
[5] = read-out: t1/2 of initial phase
[6] = read-out: t1/2 of second phase (converted)

half-life [1, 5] | half-life [1, 6] | melting point | Moles of NO released [2] | Ideal moles of NO released [2] | Compound | biphasic release of NO, first rate of release [3] | biphasic release of NO, second rate of release [3] | Moles of NO released [4]
0.0283 h | 8.9 h | 181 to 182 °C | 3.3 mol | 4 mol | [Na+].[Na+].[O-]/N=[N+](\[O-])N1CCCN(/[N+]([O-])=N/[O-])CCNCCCNCC1 [Example 1, 1,4,8,11-tetraazacyclotetradecane-1,11-bisdiazeniumdiolate] | – | – | –
0.0283 h | 8.8 h | 183 to 185 °C (dec.) | 3.3 mol | 4 mol | [Na+].[Na+].[O-]/N=[N+](\[O-])N1CCNCCNCCN(/[N+]([O-])=N/[O-])CC1 [Example 2, 1,4,7,10-tetraazacyclododecane-1,4-bisdiazeniumdiolate] | – | – | –
– | – | – | – | – | O=NN([O-])N1CCN2CCN(CCN(N([O-])N=O)CC1)C(=O)C2=O.[Na+].[Na+] [Example 6, 1,4-bis(diazeniumdiolated)-1,4,7,10-tetraazabicyclo[8.2.2]tetradecane-11,12-dione, disodium salt] | 1.0 min | 41.5 min | –
– | – | – | – | – | CCOC(=O)N1CCN(/[N+]([O-])=N/[O-])CCN(C(=O)OCC)CCN(/[N+]([O-])=N/[O-])CC1.[Na+].[Na+] [Example 7, 1,7-diazeniumdiolated-4,10-bis(ethoxycarbonyl)-1,4,7,10-tetraazacyclododecane, disodium salt] | 0.36 min | 60.9 min | –
– | – | – | – | – | O=C1C(=O)N2CCCN([N+]([O-])=N[O-])CCN([N+]([O-])=N[O-])CCCN1CC2.[Na+].[Na+] [Example 9, 1,4-bis(diazeniumdiolated)-1,5,8,12-tetraazabicyclo[10.2.2.]hexadecane-13,14-dione, disodium salt] | 1.1 min | 161 min | –

Compound | half-life [1, 5] | half-life [1, 6] | melting point | Moles of NO released [2] | Ideal moles of NO released [2] | biphasic release of NO, first rate of release [3] | biphasic release of NO, second rate of release [3] | Moles of NO released [4]
piperazine bisdiazeniumdiolate [reference compound] | – | – | – | – | 4 mol | – | – | 4.3 mol
